Experimental data: paper PMC3166964 (Biophysical chemistry, 2011)
pKd: −log10 of the molar value.

Target: T1, caspase-3(D9A,D28A) (Homo sapiens, UniProt P42574, D28A/D9A)
T1 sequence (P42574 1-175 D9A/D28A limits assumed): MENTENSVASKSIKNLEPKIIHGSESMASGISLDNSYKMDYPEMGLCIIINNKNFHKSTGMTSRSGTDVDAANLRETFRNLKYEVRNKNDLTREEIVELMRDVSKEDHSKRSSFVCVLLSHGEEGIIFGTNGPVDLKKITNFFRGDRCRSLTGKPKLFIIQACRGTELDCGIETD
T1 sequence (P42574 176-277 limits assumed): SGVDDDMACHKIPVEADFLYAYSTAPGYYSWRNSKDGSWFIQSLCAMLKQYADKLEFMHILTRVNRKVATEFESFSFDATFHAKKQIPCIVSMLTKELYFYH
Experiment: isothermal titration calorimetry
Assay type: binding

Question: With `CCN(CC)S(=O)(=O)c1ccc(-c2ccc(S(=O)(=O)N(CC)CC)s2)s1` [compound 42, N2,N2-diethyl-5-{5-[(diethylamino)sulfonyl]-2-thienyl}thiophene-2-sulfonamide] as the compound, how does the pKd read?
Answer: Its pKd is roughly 5.40.
